As usually defined, the IC50 is the concentration that inhibits the measured activity by half. One may read the inhibition as the share of the control response that was lost under treatment.

Test [1] has as its target eeAChE (Electrophorus electricus AChE) (Electrophorus electricus, UniProt O42275). Briefly: Cholinesterase inhibition assay (modified Ellman's method), eeAChE. The class given is biochemical. As to conditions: for SI eeAChE: ratio eqBChE IC50/eeAChE IC50. From the text:
Compound series A and B were initially screened for their cholinesterase activity against eeAChE (Electrophorus electricus AChE) and eqBChE (equine serum butyrylcholinesterase), using an adaptation of the Ellman’s method. […]. […] Similarly, replacing the terminal triple bond in 7l with a nitrile group reduced its activity, while replacing the O-propargyl group with an N,N-dipropargyl group in 10 enhanced the inhibition of both enzymes, particularly BChE (Table ). The installation of an additional aryl ring in 7o further improved AChE inhibition, slightly increasing selectivity toward this enzyme. […]. […]. […]. The inhibitory activity of the synthesized compounds toward eeAChE and eqBChE was evaluated spectrophotometrically through a 96-well microplate modified Ellman’s method. The solutions of both enzymes were prepared as 0.025 U/mL in phosphate buffer at pH 7, from stock solutions of 5.05 U/mL and 7.50 U/mL, respectively. The stock solutions for the target compounds (0.1 M) were prepared in dimethyl sulfoxide (DMSO). […] The reaction mixture was prepared with 100 μL of the enzyme (eeAChE or eqBChE) and 50 μL of the test compound (or DMSO/water, not exceeding 0.2% of DMSO in the wells; i.e blank samples). After 5 min of the preincubation period at 37 °C, 50 μL of ATChI or BTChI and 50 μL of DTNB were added to each well, thus initiating the enzymatic reaction. The absorbance values were measured at 415 nm, for a total of 7.5 min, at every 2.5 min, using a microplate reader (Synergy multimode reader; BioTek). […]. All experiments were performed in triplicate.
For orientation: Ellman's reagent forms a yellow product with free thiols.

The next test deals with T1, Aβ42 aggregation (Homo sapiens, UniProt P05067).
T1 construct: expressed in transfected cells; host or cells: E. coli BL21 (DE3), pET vector
Briefly: Thioflavin S assay of Aβ42 aggregation in E. coli cells overexpressing Aβ42. The test is classed as cell-based, Escherichia coli. As to conditions: read-out: Aβ42 inhibition %. An outline of the steps: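 E. coli BL21(DE3) expressing Met-Aβ42 were grown in M9 medium with 25 μM ThS, induced with IPTG at OD600 0.6 and grown overnight at 37 °C with compound (final 10 μM). ThS emission at 485 nm (ex 445 nm, 25 °C) was normalised to OD600. Uninduced cells set 0% and induced DMSO cells 100%.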

The target of another test is T2, Aβ42 peptide (Homo sapiens, UniProt P05067).
T2 construct: Synthetic Aβ42 (GenScript) was dissolved in hexafluoro-2-propanol (HFIP); purchased GenScript; host or cells: chemical synthesis
Briefly: TEM of Aβ42 fibril growth. The conditions noted are these: Aβ42 10 μM, compound 50 μM, 6–48 h, 37 °C. How it is done: We selected compound 11r for further investigation of its ability to interfere with the Aβ42 aggregation process in vitro. The decision was based on the structural potential of the chromeno[3,4-b]-xanthone scaffold, the encouraging results for 11r, and its overall profile in our preliminary studies. […] The morphological changes of Aβ42 species were assessed through transmission electron microscopy (TEM), in the presence and absence of 11r. […] In the absence of 11r (Figure , top panels), as early as 6 h of incubation at 37 °C, (white arrow), short (white arrowhead) and long fibrils were detected. As incubation progressed, long fibrils were more abundant, while other species became scarce, resulting in bundles of tangled fibrils after 48 h (Figure ).
Synthetic Aβ42 (GenScript) was dissolved in hexafluoro-2-propanol (HFIP) (Merck) and left at room temperature (RT) for 48 h. Subsequently, the HFIP was removed using a stream of nitrogen, and the resulting powder was dissolved in dimethyl sulfoxide (DMSO) (Sigma-Aldrich) at a concentration of 2000 μM. […]
The βnalysis of the morphology and fibril formation of samples coincubated with Aβ42 (10 μM) (GenScript) and the selected compounds (50 μM) at different time-points (6, 12, 24, and 48 h) at 37 °C, was assessed through TEM. […]

Molecules are shown by their SMILES. Like-named read-outs stand apart in the source and are kept apart here.

Sequence of eeAChE (Electrophorus electricus AChE) (O42275 24-633): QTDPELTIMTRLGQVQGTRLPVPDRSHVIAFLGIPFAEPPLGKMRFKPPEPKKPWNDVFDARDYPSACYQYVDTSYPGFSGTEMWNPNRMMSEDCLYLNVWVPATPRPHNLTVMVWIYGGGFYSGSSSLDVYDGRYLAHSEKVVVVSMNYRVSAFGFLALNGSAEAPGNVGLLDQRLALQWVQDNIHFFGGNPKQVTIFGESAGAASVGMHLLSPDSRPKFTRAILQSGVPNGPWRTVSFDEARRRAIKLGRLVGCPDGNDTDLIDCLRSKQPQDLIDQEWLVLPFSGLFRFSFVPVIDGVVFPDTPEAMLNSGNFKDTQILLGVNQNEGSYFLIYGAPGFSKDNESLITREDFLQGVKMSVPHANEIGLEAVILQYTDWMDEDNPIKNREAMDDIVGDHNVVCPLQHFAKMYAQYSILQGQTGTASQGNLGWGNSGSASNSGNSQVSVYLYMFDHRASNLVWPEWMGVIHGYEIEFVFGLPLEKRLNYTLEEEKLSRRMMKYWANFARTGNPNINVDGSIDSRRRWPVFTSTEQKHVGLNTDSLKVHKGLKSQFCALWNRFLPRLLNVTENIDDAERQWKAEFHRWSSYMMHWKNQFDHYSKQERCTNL
T1 sequence (P05067 672-713): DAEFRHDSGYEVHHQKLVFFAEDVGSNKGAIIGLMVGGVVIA
T2 sequence (P05067 672-713 limits assumed): as the sequence (P05067 672-713) above

Regarding `COc1ccc2c(=O)c3cc4c(cc3oc2c1)-c1cc(Cl)ccc1OC4` [Compound 11r, 2-Chloro-11-methoxy-6H,8H-chromeno[3,4-b]xanthen-8-one], in test [1], the IC50 is 2.1 ± 0.9 µM and the “SI eeAChE” value is 3.00. Moreover, the inhibition at 50 µM at Aβ42 aggregation stood at 57 ± 5.7%. In addition, the “Effect on Aβ42 fibril morphology (TEM)” value at Aβ42 peptide was “inhibiting Aβ42 fibrillogenesis”.
`C#CCN(CC#C)c1ccccc1/C=C/c1cc(=O)c2ccccc2o1` [Compound 10, (E)-2-{2-[Di(prop-2-yn-1-yl)amino]styryl}-4H-chromen-4-one]: the IC50 in test [1] (mean ± SEM, n = 3, n.a = nonactive, IC50 determined only if inhibition higher than 50% at 20 μM) came to 8.7 ± 0.5 µM. Besides, the “SI eeAChE” value in test [1] stood at 0.68. The inhibition at 50 µM on Aβ42 aggregation worked out at 36 ± 18.3%.

These data come from article PMC12818745 (ACS Chemical Neuroscience, 2025).
